Measured values reported in patent US20230220047A1, “PEPTIDES FOR TREATMENT OF SEPSIS AND CANCER” (NORWEGIAN UNIVERSITY OF SCIENCE AND TECHNOLOGY (NTNU), priority 2020, published 2023).
“Also recorded” adds a separate entry of the source.

Columns and labels:
[1] = system: murine TLR7; experiment: TLR7-mediated cytokine expression in murine macrophages (R848); format: cell-based, mouse; details: R848 (data not shown)
Excerpt: Thus, P7-Pen interferes with signaling initiated by human TLR7 and TLR8, but has no effect on signaling via murine TLR7 (murine TLR8 is believed to be non-functional).

[2] = system: THP-1 WT cells and THP-1 TRAM^CHERRY; experiment: Confocal analysis of bacterial bioparticle uptake by THP-1 cells; format: cell-based, human; details: 15 μM, 30 min pre-incubation
Protocol: Cells were pre-incubated with Pen or P7-Pen peptides, followed by addition of Alexa Fluor 488-labeled bioparticles for the times indicated (15, 30 or 45 min). Fluorescent bacteria particles were counted by spot-detection in Bitplane Imaris imaging software and used to calculate the number of particles per cell. […] Pre-incubation with 3 μM cytochalasin D (CytoD, and inhibitor of actin polymerization) inhibited uptake of E. coli to a similar extent as P7-Pen.
THP-1 cells, THP-1^cherry cells or human PBMC were seeded in 24-well glass-bottom plates (MatTek Corporation), 125,000 cells/well. The THP-1 cells were differentiated into macrophages with 60 ng/ml PMA for 72 h and thereafter rested for 48 h, whereas the PBMC were used the day after isolation. The P7-penatratin peptide or control peptide was added to the cells 30 min before stimulation at 15 μM concentration. If used, 3 μM cytochalasin D (CytoD) was added simultaneously. […] A spot detection mode in the Bitplan Imaris software was used to define individual phagosomes and cells were counted manually. […] Fluorescence voxel intensity of TRAM^cherry at the phagosome is also presented. Statistical significance was calculated in GraphPad Prism by One-way ANOVA Kruskal-Wallis multiple comparison test. […]

[3] = biological target: T1, Mal interaction with MyD88 and IRAK1 (Homo sapiens, UniProt P58753); experiment: Anti-Mal immunoprecipitation from LPS-stimulated primary human macrophages; format: cell-based; details: 15 μM, 30 min pre-treatment, LPS 30 min or 1 h
T1 construct: endogenous in cells; host or cells: primary human macrophages, LPS-stimulated
T1 sequence (P58753 whole entry): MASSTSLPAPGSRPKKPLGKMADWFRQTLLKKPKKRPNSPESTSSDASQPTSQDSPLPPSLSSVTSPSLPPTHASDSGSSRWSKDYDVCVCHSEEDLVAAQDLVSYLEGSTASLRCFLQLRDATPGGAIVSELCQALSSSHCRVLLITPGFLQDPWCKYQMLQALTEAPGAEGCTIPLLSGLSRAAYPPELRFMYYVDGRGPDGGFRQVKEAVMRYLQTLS
Protocol: (A) Mal^Flag was overexpressed in HEK293T cells. […] Lysis buffer contained 300 mM NaCl and 1% Triton X100. (B) Mal^Flag and SLAMF1 wt or deletion mutants (Δ20 or Δ67 C-terminal amino acids) were co-expressed in HEK293T cells followed by immunoprecipitations with anti-Flag beads and Western blot analysis. (C) Primary human macrophages were pre-treated with 15 μM peptides for 30 min, stimulated with LPS for another 30 min or 1 h, lysed and used for IPs. Precipitations were performed using goat anti-Mal polyclonal antibodies covalently bound to magnetic beads, followed by Western blot analysis. Proteins in lysates were analysed for input control (A-C).

[4] = system: SW480 cells; experiment: Proliferation of SW480 colon cancer cells; format: cell-based, human; details: 15 μM, 48 h, with or without LPS 100 ng/ml
Protocol: SW480 cells were seeded and incubated in medium alone or supplemented with water, 15 μM penetratin, 15 μM P7-Pen or 15 μM P7-N4-Pen. Under each condition cells were incubated both without LPS and with 100 ng/ml LPS. Cells were incubated for 48 hours then counted. […] The presence of LPS made no difference to the effect of the peptides on proliferation. Results are based on 3 biological replicates, error bars show standard deviation of mean.
SW480 (ATCC CCL-228) and Jurkat (ATCC Clone E6-1; TIB-152) cells were cultured in RPMI 1640 (Sigma-Aldrich, Schnelldorf, Germany) supplemented with 10% heat-inactivated FCS, penicillin/streptomycin (Life Technologies) and 20 mM L-Glutamine. THP-1 cells (ATCC TIB-202) were cultured in RPMI-1640 (high-glucose, ATCC) supplemented with 10% heat inactivated foetal calf serum (FCS), 100 nM penicillin/streptomycin and 5 μM β-mercaptoethanol (Sigma). THP-1 cells were differentiated with 60 ng/ml phorbol 12-myristate 13-acetate (PMA, Sigma) for 72 h, followed by 24 or 48 h in medium without PMA.
The peptides were tested against the SW480 cell line in the presence and absence of LPS.

[5] = system: STAT1; experiment: Western blot of STAT1 phosphorylation in LPS-stimulated THP-1 cells; format: cell-based, human; details: LPS
Protocol: Protein pellets were dissolved by heating protein pellets for 10 min at 95° C. in buffer containing 4 M urea, 1 SDS (Sigma) and NuPAGE® LDS Sample Buffer (4×) (Thermo Fisher Scientific). Otherwise, lysates were made using 1× RIPA lysis buffer (150 mM NaCl, 50 mM TrisHCl (pH 7.5), 1% Triton X100, 5 mM EDTA, protease inhibitors, phosphatase inhibitors). For Western blot analysis we used pre-cast protein gels NuPAGE™ Novex™ and iBlot Transfer Stacks iBlot Gel Transfer Device (Thermo Fisher Scientific). Proteins were transferred to the membrane by dry-blotting using iBlot® 2 NC Regular/Mini Stacks (Life Technologies) in the iBlot 2 Dry Blotting System (Life Technologies). After secondary antibody incubation, membranes were washed and incubated with HRP substrate solution (SuperSignal™ West Femto Maximum Sensitivity Substrate (Thermo Fisher Scientific)). Images were taken using Odyssey® Fc (LI-CORE). Quantification graphs were generated by the analysis of signal intensities for protein bands (protein of interest and endogenous loading control—β-tubulin from the same membrane) using Odyssey software (LI-CORE). Data were normalised to the expression levels of β-tubulin and presented as a relative fold change to the control sample.

[6] = system: primary human monocytes; experiment: LDH cell viability in primary human monocytes; format: cell-based; details: compared to control peptides or P7-Pen

| Substance | TLR7-mediated cytokine expression [1] | uptake of S. aureus bioparticles ([2]; THP-1 TRAM^CHERRY) | uptake of E. coli particles ([2]; THP-1 WT and THP-1 TRAM^CHERRY) | Mal recruitment to the MyD88 complex and IRAK1 [3] | effect on proliferation of SW480 cells [4] | phosphorylation of STAT1 ([5]; 10 μM) | phosphorylation of STAT1 ([5]; 20 μM) | basal toxicity [6] |
| --- | --- | --- | --- | --- | --- | --- | --- | --- |
| Ac-ITVYASVTLTGRQIKIWFQNRRMKWKK-NH2 [Peptide P7-Pen] | no effect | inhibited | inhibited | totally abrogated; also recorded: disruption | a degree of anti-proliferative effect |  |  |  |
| Ac-ITVYASVTLTGRRRRRRRRRRR-NH2 [Peptide P7-Arg11] |  |  |  |  |  | strongly inhibited | fully abrogated | higher basal toxicity |
